Experimental data: PubChem BioAssay AID1963842 (Molecular Pharmacology Branch, DTP, NCI, 2024)

System: 677734-321-R-J1-PDC complex spheroid viability
Experiment: Anticancer human tumor 677734-321-R-J1-PDC patient-derived soft tissue sarcoma cell line growth inhibition [POLQ]
Settings: for IC50: curve of first compound; for viability, T/C: stronger effect = lower value
Procedure: Multicellular complex tumor spheroid response to Polymerase (POL) inhibitors (novobiocin, ART-558, RP6685) in combination with a variety of drugs and investigational agents in selected tumor cell lines
The POL inhibitors (novobiocin, ART-558, and RP6685) were evaluated both individually and in combination with standard of care and investigational anticancer small molecules within a complex spheroid model of solid tumors. . Complex spheroids include a stromal component modeled by human endothelial cells (HUVEC) and fibroblasts modeled by human mesenchymal stem cells (MSCs). The concentration ranges selected for each drug and investigational agent were based upon clinically achievable concentrations if the clinical Cmax of the agent was known.
Compounds. The drugs and investigational agents: novobiocin (NSC847541), ART-558 (NSC835418), RP-6685 (NSC848927), peposertib (NSC802822), ceralasertib (NSC780249), elimusertib (NSC800525), camonsertib (NSC841442), AZD-1390 (NSC803789), olaparib (NSC753686), talazoparib (NSC767125), rucaparib (NSC756644), sotorasib (NSC818433), MRTX-1133 (NSC836407), SN-38 (NSC673596), topotecan (NSC609699), epotoside (NSC141540), doxorubicin (NSC123127), gemcitabine (NSC613327), 5-fluorouracil (NSC19893), paclitaxel (NSC125973), vemurafenib (NSC761431), MSA-2 (NSC828583), SN-011 (NSC837082), adavosertib (NSC754352), prexasertib (NSC758257), carboplatin (NSC241240) and oxaliplatin (NSC266046), were obtained from the National Cancer Institute (NCI) Developmental Therapeutics Program Chemical Repository (21). The FDA-approved anticancer drug set is available from the Developmental Therapeutics Program at https://dtp.cancer.gov/organization/dscb/obtaining/. […] The stock solutions were prepared in dimethyl sulfoxide (DMSO, Sigma-Aldrich, St. Louis, MO, cat. D2650), except for the platinum compounds which were prepared in saline (Quality Biological, Gaithersburg, MD, cat. 114-055-101), at 800-fold the tested concentration and stored at -70 degrees C prior to their use. All drugs and investigational agents were tested over a range starting from a high concentration at or near the clinical Cmax and decreasing in half-log increments. If the clinical Cmax for an agent had not been determined, the highest concentration tested was 10 microM, except for SN-38, which was tested at a high concentration of 1 microM.
Cell Culture. All cells were maintained in an incubator at 37 degrees C and 5% CO2 with 95% humidity. The PDC lines were cultured according to standard operating procedures established by the NCI PDMR (https://pdmr.cancer.gov). Table 3 of the manuscript, lists the cell lines along with the number of the three cell types plated to form the mct-spheroids and media for tumor cell growth. After thawing, all PDC lines, except 997537-175-T-J1-PDC and 415267-285-R-J2-PDC, were cultured in Matrigel-coated flasks prepared with a working solution of 1X Ham's F-12 nutrient mix, without supplementation (Thermo Fisher Scientific, cat. 11765054), 100 U/mL penicillin-streptomycin (Thermo Fisher Scientific, cat. 15140122), and 2.5% Matrigel (Corning Inc., Corning, NY, cat. 354248) for the first three passages. The two PDC lines 997537-175-T-J1-PDC and 415267-285-R-J2-PDC were cultured on uncoated flasks. The 857933-349-R-J2-PDC line was cultured in 6C/Colon 1B media containing advanced DMEM/F-12 (Thermo Fisher Scientific, cat. 12634028), 10 mM HEPES (Thermo Fisher Scientific, cat. 15630080), 1X GlutaMAX supplement (Thermo Fisher Scientific, cat. 35050061), 0.1 mg/mL primocin (InvivoGen, San Diego, CA, cat. ant-pm-2), 10% defined fetal bovine serum, heat inactivated (HyClone Laboratories Inc., Logan, UT, cat. SH30070.03HI), 50% L-WRN conditioned media (ATCC, cat. CRL-3276), 1.25 mM N-Acetyl-L-cysteine (Sigma-Aldrich, cat. A9165), 10 mM nicotinamide (Sigma-Aldrich, cat. N0636), 1X B-27 supplement (Thermo Fisher Scientific, cat. 17504044), 1X N-2 supplement (Thermo Fisher Scientific, cat. […]

[1] = second compound 0.0316 µM, first compound 0.0316 µM
[2] = second compound 0.0316 µM, first compound 0.1 µM
[3] = second compound 0.0316 µM, first compound 0.316 µM
[4] = second compound 0.0316 µM, first compound 1 µM
[5] = second compound 0.1 µM, first compound 0.0316 µM
[6] = second compound 0.1 µM, first compound 0.1 µM
[7] = second compound 0.1 µM, first compound 0.316 µM
[8] = second compound 0.1 µM, first compound 1 µM
[9] = second compound 0.316 µM, first compound 0.0316 µM
[10] = second compound 0.316 µM, first compound 0.1 µM
[11] = second compound 0.316 µM, first compound 0.316 µM
[12] = second compound 0.316 µM, first compound 1 µM
[13] = second compound 1 µM, first compound 0.0316 µM
[14] = second compound 1 µM, first compound 0.1 µM
[15] = second compound 1 µM, first compound 0.316 µM
[16] = second compound 1 µM, first compound 1 µM
[17] = second compound 3.16 µM, first compound 0.0316 µM
[18] = second compound 3.16 µM, first compound 0.1 µM
[19] = second compound 3.16 µM, first compound 0.316 µM
[20] = second compound 3.16 µM, first compound 1 µM
[21] = second compound 10 µM, first compound 0.0316 µM
[22] = second compound 10 µM, first compound 0.1 µM
[23] = second compound 10 µM, first compound 0.316 µM
[24] = second compound 10 µM, first compound 1 µM
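Note: spheroids exposed to compounds for one week.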
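Throughout, for viability, T/C: 100% = vehicle DMSO treated spheroids.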

COc1ccc([C@@H](O)c2cc(-c3ncnc4cc(N5CCOCC5)ccc34)c(F)cc2Cl)nn1 + COC1C(OC(N)=O)C(O)C(Oc2ccc3c(O)c(NC(=O)c4ccc(O)c(CC=C(C)C)c4)c(=O)oc3c2C)OC1(C)C
IC50 (second compound 0.0316 µM): > 10 µM
IC50 (second compound 0.1 µM): 9.81 µM
IC50 (second compound 0.316 µM): 9.58 µM
IC50 (second compound 1 µM): > 10 µM
IC50 (second compound 3.16 µM): > 10 µM
IC50 (second compound 10 µM): > 10 µM
viability, T/C [1]: 106%
viability, T/C [2]: 112%
viability, T/C [3]: 99.7%
viability, T/C [4]: 105%
viability, T/C (second compound 0.0316 µM, first compound 3.16 µM): 82.1%
viability, T/C (second compound 0.0316 µM, first compound 10 µM): 56.9%
viability, T/C [5]: 112%
viability, T/C [6]: 107%
viability, T/C [7]: 100%
viability, T/C [8]: 98.2%
viability, T/C (second compound 0.1 µM, first compound 3.16 µM): 83.8%
viability, T/C (second compound 0.1 µM, first compound 10 µM): 48.8%
viability, T/C [9]: 110%
viability, T/C [10]: 104%
viability, T/C [11]: 104%
viability, T/C [12]: 98.4%
viability, T/C (second compound 0.316 µM, first compound 3.16 µM): 82.5%
viability, T/C (second compound 0.316 µM, first compound 10 µM): 48.6%
viability, T/C [13]: 111%
viability, T/C [14]: 102%
viability, T/C [15]: 97.3%
viability, T/C [16]: 100%
viability, T/C (second compound 1 µM, first compound 3.16 µM): 79.4%
viability, T/C (second compound 1 µM, first compound 10 µM): 52.5%
viability, T/C [17]: 107%
viability, T/C [18]: 106%
viability, T/C [19]: 106%
viability, T/C [20]: 93.1%
viability, T/C (second compound 3.16 µM, first compound 3.16 µM): 79.5%
viability, T/C (second compound 3.16 µM, first compound 10 µM): 56.1%
viability, T/C [21]: 111%
viability, T/C [22]: 105%
viability, T/C [23]: 104%
viability, T/C [24]: 108%
viability, T/C (second compound 10 µM, first compound 3.16 µM): 85.1%
viability, T/C (second compound 10 µM, first compound 10 µM): 50.9%

CCc1c2c(nc3ccc(O)cc13)-c1cc3c(c(=O)n1C2)COC(=O)[C@]3(O)CC + Cc1cccc(N(C)C(=O)C2C(O)CCN2c2nc(C)cc(C(F)(F)F)c2C#N)c1
IC50 (second compound 0.0316 µM): < 0.00316 µM
IC50 (second compound 0.1 µM): < 0.00316 µM
IC50 (second compound 0.316 µM): < 0.00316 µM
IC50 (second compound 1 µM): < 0.00316 µM
IC50 (second compound 3.16 µM): < 0.00316 µM
IC50 (second compound 10 µM): < 0.00316 µM
viability, T/C (second compound 0.0316 µM, first compound 0.00316 µM): 34%
viability, T/C (second compound 0.0316 µM, first compound 0.01 µM): 20.2%
viability, T/C [1]: 5.31%
viability, T/C [2]: 2.32%
viability, T/C [3]: 1.63%
viability, T/C [4]: 1.3%
viability, T/C (second compound 0.1 µM, first compound 0.00316 µM): 26.2%
viability, T/C (second compound 0.1 µM, first compound 0.01 µM): 15.4%
viability, T/C [5]: 5.43%
viability, T/C [6]: 2.52%
viability, T/C [7]: 1.76%
viability, T/C [8]: 2.63%
viability, T/C (second compound 0.316 µM, first compound 0.00316 µM): 28%
viability, T/C (second compound 0.316 µM, first compound 0.01 µM): 18.8%
viability, T/C [9]: 4.71%
viability, T/C [10]: 2.82%
viability, T/C [11]: 1.97%
viability, T/C [12]: 2.54%
viability, T/C (second compound 1 µM, first compound 0.00316 µM): 30.3%
viability, T/C (second compound 1 µM, first compound 0.01 µM): 15.7%
viability, T/C [13]: 5.16%
viability, T/C [14]: 2.53%
viability, T/C [15]: 1.97%
viability, T/C [16]: 2.5%
viability, T/C (second compound 3.16 µM, first compound 0.00316 µM): 36.4%
viability, T/C (second compound 3.16 µM, first compound 0.01 µM): 13.5%
viability, T/C [17]: 4.68%
viability, T/C [18]: 2.35%
viability, T/C [19]: 2.92%
viability, T/C [20]: 1.89%
viability, T/C (second compound 10 µM, first compound 0.00316 µM): 28.2%
viability, T/C (second compound 10 µM, first compound 0.01 µM): 15.4%
viability, T/C [21]: 5.22%
viability, T/C [22]: 3.2%
viability, T/C [23]: 3.11%
viability, T/C [24]: 1.34%
